Source: patent US20150297591A1, “METHODS OF TREATING PULMONARY FIBROSIS” (Duke University, priority 2012, published 2015)

Columns and labels:
[1] = following RT; by decreasing free radical injury; cited from earlier work
[2] = system: C57BL/6 mice; assay: Radiation fibrosis model in C57BL/6 mice (15 Gy thoracic RT), SMA immunostaining of lung; type: in vivo, mouse; conditions: C57BL/6 lungs 20 wks post-15 Gy; 77427 IP twice weekly for 20 weeks; vs RT+PBS
From the text: Our first investigation tested the hypothesis that GRP contributes to RTP using an established mouse model of radiation fibrosis in C57BL/6 mice, which are prone to fibrosis. Following exposure to high-dose thoracic radiation (15 Gy), we treated mice intraperitoneally (IP) with either PBS or GRP blockade by using small molecule 77427. We quantified results of immunohistochemistry by using quantitative image analysis with ImageJ to determine whether GRP contributes to RT-induced inflammatory responses and/or fibrosis, specifically including assessment of active TGFβsignaling^7. As noted above, the first investigation (FIGS. 1 and 2) tested the hypothesis that GRP contributes to RTP using an established mouse model of radiation fibrosis in C57BL/6 mice. Following exposure to high-dose thoracic radiation (15 Gy), we treated mice intraperitoneally (IP) with either PBS or GRP blockade by using small molecule 77427. We quantified results of immunohistochemistry by using quantitative image analysis with ImageJ to determine whether GRP contributes to RT-induced inflammatory responses and/or fibrosis, specifically including assessment of active TGFβ signaling^7. In FIG. 1B, note that there is extensive immunostaining for myofibroblasts in the alveolar walls (arrows) in mice exposed to RT 20 weeks earlier and given only PBS. […]

[3] = system: C57L/J (L/J) mice; assay: C57L/J model of radiation pneumonitis (15 Gy thoracic RT), SMA immunostaining of lung; type: in vivo, mouse
Experimental: (§1) In a second series of experiments, C57L/J (L/J) mice were treated with 15 Gy of thoracic radiation. L/J mice are exquisitely sensitive to even low doses of RT, and rapidly develop both pneumonitis and fibrosis. Groups of L/J mice were injected intraperitoneally with PBS, 77427 or 2A11, given as a single dose (20 nmole per mouse) at 24 hours post-RT.
It was recently observed by Zelcko Vujaskovic et al that C57L/J (L/J) mice have radiation sensitivity very similar to humans^19, making the L/J model of radiation-pneumonitis most clinically relevant. Using this L/J model, we treated mice IP with a single dose of 77427 (10 nmol per mouse) given IP at 24 hours post-RT. At 15 weeks later, we observed early evidence of pulmonary fibrosis that was abrogated by the single dose of 77427 (FIG. 3). […] Therefore, we have included a claim that GRP blockade may be a treatment to prevent, arrest, or reverse pulmonary arteriopathy leading to pulmonary hypertension, another serious and poorly understood medical condition that is now treated symptomatically.

[4] = system: C57L/J (L/J) mice; assay: C57L/J model, Masson's trichrome staining for collagen in alveoli; type: in vivo, mouse
Experimental: as §1
In normal, Sham-irradiated lung (FIG. 5A), there are only traces of green collagen staining in the alveolar walls (arrows). In contrast, 15 weeks post-RT, early collagen deposition is widespread throughout the alveolar walls.
We quantified the area of green trichrome staining in the trichrome-stained slides (including those shown in FIG. 5), using ImageJ, normalized for the total area of alveolar tissue in the same photomicrograph, similar to the analysis used for FIG. 4.

[5] = system: C57L/J (L/J) mice; assay: C57L/J model, hydroxyproline assay on whole mouse lungs (total lung collagen); type: in vivo; conditions: 15 weeks post-RT, single dose, initial assay results
Experimental: as §1
As a second measure of pulmonary collagen levels, we carried out the hydroxyproline assay on whole mouse lungs from the same groups of mice as given in the legend to FIG. 3. There is a trend toward increased collagen at 15 weeks post-RT, which is confounded to some extent by the presence of collagen in connective tissue of blood vessels and airways in normal lung. Additional samples are being assayed in the near future.

[6] = system: C57L/J (L/J) mice; assay: C57L/J model, toluidine blue staining for mast cells in lung sections; type: in vivo, mouse; conditions: 15 weeks post-RT, single dose 24 h post-RT
Experimental: as §1
There were no detectable subpleural or interstitial mast cells in any sham controls, nor in any lungs at 10 weeks post-RT. At 15 weeks post-RT there was a dramatic accumulation of mast cells subpleurally (black arrows) and in the alveolar interstitium (red arrows). These were most abundant in mice treated with RT+PBS (FIG. 8A), with a reduction by over 50% in mice give 77427 (FIG. 8B). Total numbers of subpleural mast cells have been quantified for all of the lung tissue on each slide and will be normalized for the length of pleura present.

## CCN1C=CC=C/C1=C1/C2=NC(=C(c3cccc[n+]3CC)C3=NC(=C(c4cccc[n+]4CC)c4ccc([n-]4)C(c4cccc[n+]4CC)=C4C=CC1=N4)C=C3)C=C2.[Cl-].[Cl-].[Cl-].[Cl-].[Cl-].[Mn+3] [AEOL10113]
[1]
  severity of RTP: can reduce the severity of RTP

## Nc1nc(Cl)cc(NCCO)n1 [compound 77427]
[2]
  interstitial SMA staining (myofibroblasts in alveolar walls), early indicator of radiation fibrosis: abrogates this interstitial SMA staining
[3]; C57L/J lung 15 wks post-15 Gy, single dose IP 24 h post-RT
  SMA+ myofibroblasts in small distal blood vessels: greatly reduces SMA+ myofibroblasts in small distal blood vessels
[3]; C57L/J, 15 weeks post-RT, single dose 10 nmol per mouse IP at 24 hours post-RT
  early evidence of pulmonary fibrosis (SMA+ cells): abrogated
[4]; C57L/J lung 15 weeks post-15 Gy, single dose 24 h post-RT
  trichrome (collagen) levels in the alveoli: reduced trichrome levels in the alveoli to near baseline levels
[4]; C57L/J, 15 weeks post-high dose RT, RT+PBS vs RT+77427 P<0.001
  alveolar collagen deposition (quantified trichrome area normalized for alveolar tissue area): abrogates alveolar collagen deposition
[5]
  hydroxyproline content of whole lung (total lung collagen): do not have elevated hydroxyproline content
[6]
  reduction of mast cells (subpleural and alveolar interstitium) versus RT+PBS: over 50%
  subpleural mast cells (toluidine blue staining): reduced
